Measurements reported in patent US8476271B2 (priority 2008, dated 2013).
Counter-ions that a name gives are not always drawn.

Tests used:
[1] = abnormal behavioral side effects (sedation, hyperactivity, hypoactivity); conditions: rat, in vivo
[2] = test system: FCA-induced thermal hyperalgesia; assay: FCA model of inflammatory pain, thermal hyperalgesia (PWL, plantar test); type: in vivo; conditions: rat
Procedure: (§1) Each experiment used rats weighing between 200-260 g at the start of the experiment. The rats were group-housed and had free access to food and water at all times, except prior to oral administration of a Substituted-Quinoxaline-Type Bridged-Piperidine Compound when food was removed for 16 hours before dosing. A control group acted as a comparison to rats treated with a Substituted-Quinoxaline-Type Bridged-Piperidine Compound. The control group was administered the carrier for the Substituted-Quinoxaline-Type Bridged-Piperidine Compound. The volume of carrier administered to the control group was the same as the volume of carrier and Substituted-Quinoxaline-Type Bridged-Piperidine Compound administered to the test group.
To assess the actions of a Substituted-Quinoxaline-Type Bridged-Piperidine Compound for the treatment or prevention of inflammatory pain, the Freund's complete adjuvant (“FCA”) model of inflammatory pain was used. […] The left hind paw of each animal was administered a 50 μL intraplantar injection of 50% FCA. 24 hour post injection, the animal was assessed for response to noxious mechanical stimuli by determining the PWT, or to noxious thermal stimuli by determining the PWL, as described below. […] Responses to noxious mechanical stimuli were then determined 1, 3, 5 and 24 hours post administration. Percentage reversal of hyperalgesia for each animal was defined as: […]
The plantar test can be used to assess thermal hyperalgesia. For this test, hind paw withdrawal latencies (PWL) to a noxious thermal stimulus were determined using a plantar test apparatus (commercially available from Ugo Basile of Italy) following the technique described by K. Hargreaves et al., “A New and Sensitive Method for Measuring Thermal Nociception in Cutaneous Hyperalgesia,” Pain 32(1):77-88 (1988). The maximum exposure time was set at 32 seconds to avoid tissue damage and any directed paw withdrawal from the heat source was taken as the end point. Three latencies were determined at each time point and averaged. Either only the affected (ipsilateral) paw was tested, or both the ipsilateral and contralateral (non-injured) paw were tested.

[3] = test system: nerve injury-induced mechanical hyperalgesia; assay: Seltzer partial sciatic nerve ligation model of neuropathic pain, mechanical hyperalgesia (PWT); type: in vivo; conditions: rat, 3 mg/kg
Procedure: as §1
Partial ligation of the left sciatic nerve was performed under isoflurane/O2 inhalation anesthesia. Following induction of anesthesia, the left thigh of the rat was shaved and the sciatic nerve exposed at high thigh level through a small incision and was carefully cleared of surrounding connective tissues at a site near the trocanther just distal to the point at which the posterior biceps semitendinosus nerve branches off of the common sciatic nerve. A 7-0 silk suture was inserted into the nerve with a ⅜ curved, reversed-cutting mini-needle and tightly ligated so that the dorsal ⅓ to ½ of the nerve thickness was held within the ligature. The wound was closed with a single muscle suture (4-0 nylon (Vicryl)) and vetbond tissue glue. Following surgery, the wound area was dusted with antibiotic powder. Sham-treated rats underwent an identical surgical procedure except that the sciatic nerve was not manipulated. Following surgery, animals were weighed and placed on a warm pad until they recovered from anesthesia. Animals were then returned to their home cages until behavioral testing began. The animals were assessed for response to noxious mechanical stimuli by determining PWT, as described below, prior to surgery (baseline), then immediately prior to and 1, 3, and 5 hours after drug administration for rear paw of the animal. Percentage reversal of neuropathic hyperalgesia was defined as: […]
The paw pressure assay was used to assess mechanical hyperalgesia. For this assay, hind paw withdrawal thresholds (PWT) to a noxious mechanical stimulus were determined using an analgesymeter (Model 7200, commercially available from Ugo Basile of Italy) as described in C. […] The maximum weight that could be applied to the hind paw was set at 250 g and the end point is taken was complete withdrawal of the paw. PWT was determined once for each rat at each time point and either only the affected (ipsilateral) paw was tested, or both the ipsilateral and contralateral (non-injured) paw were tested.

[4] = target: hERG (human ether a-go-go gene) (Homo sapiens (Human), UniProt Q12809); assay: cardiovascular side effects: in vitro hERG assay and APD in guinea pig purkinje fibers
Procedure: These side effects were determined using known methods: an in vitro hERG (human ether a-go-go gene) assay as disclosed in Z. Zhou et al., “Properties of HERG Channels Stably Expressed in HEK 293 Cells Studied at Physiological Temperature,” Biophysical J. 74:230-241 (1998); and APD (action potential duration) in guinea pig purkinje fibers as disclosed in J. A. Hey, “The Guinea Pig Model for Assessing Cardiotoxic Proclivities of Second Generation Antihistamines,” Arzneimittelforschung 46(8):834-837 (1996).

[5] = 5 mg/kg dose, 1 hour after administration
[6] = 5 mg/kg dose, 3 hours after administration
[7] = 5 mg/kg dose, 5 hours after administration

| SMILES | abnormal behavioral side effects, such as sedation, hyperactivity and/or hypoactivity [1] | % reversal of thermal hyperalgesia [2, 5] [%] | % reversal of thermal hyperalgesia [2, 6] [%] | % reversal of thermal hyperalgesia [2, 7] [%] | % reversal of mechanical hyperalgesia ([3]; 1 hour after administration) [%] | % reversal of mechanical hyperalgesia ([3]; 3 hours after administration) [%] | % reversal of mechanical hyperalgesia ([3]; 5 hours after administration) [%] | % reversal of mechanical hyperalgesia ([3]; 7 hours after administration) [%] | cardiovascular side effects [4] | % reversal of thermal hyperalgesia ([2]; 3 mg/kg dose, 1 hour after administration) [%] | % reversal of thermal hyperalgesia ([2]; 3 mg/kg dose, 3 hours after administration) [%] | % reversal of thermal hyperalgesia ([2]; 3 mg/kg dose, 5 hours after administration) [%] | ED50 for reversal of thermal hyperalgesia ([2]; 1 hour after administration) [mg/kg] | ED50 for reversal of thermal hyperalgesia ([2]; 3 hours after administration) [mg/kg] | ED50 for reversal of thermal hyperalgesia ([2]; 5 hours after administration) [mg/kg] |
| --- | --- | --- | --- | --- | --- | --- | --- | --- | --- | --- | --- | --- | --- | --- | --- |
| O=C(O)c1nc2ccccc2n([C@H]2C[C@H]3CC[C@@H](C2)N3C2CCCCCCCCCC2)c1=O [Compound 358, 4-((endo)-8-cycloundecyl-8-azabicyclo[3.2.1]octan-3-yl)-3-oxo-3,4-dihydroquinoxaline-2-carboxylic acid] | reduced abnormal behavioral side effects | 34 | 46 | 79 |  |  |  |  |  |  |  |  |  |  |  |
| O=C(O)c1nc2ccccc2n([C@H]2C[C@H]3CC[C@@H](C2)N3[C@H]2C[C@@H]3CCC[C@@H](C3)C2)c1=O [Compound 361, 4-((endo)-8-((exo)-bicyclo[3.3.1]nonan-3-yl)-8-azabicyclo[3.2.1]octan-3-yl)-3-oxo-3,4-dihydroquinoxaline-2-carboxylic acid] | reduced abnormal behavioral side effects | 36 | 90 | 70 |  |  |  |  |  |  |  |  |  |  |  |
| O=C(O)c1nc2ccccc2n([C@H]2C[C@H]3CCC[C@@H](C2)N3C2CC3CCCC(C3)C2)c1=O (stereo partly drawn) [Compound 362, 4-((endo)-9-((exo)-bicyclo[3.3.1]nonan-3-yl)-9-azabicyclo[3.3.1]nonan-3-yl)-3-oxo-3,4-dihydroquinoxaline-2-carboxylic acid] | reduced abnormal behavioral side effects |  |  |  | 60 | 60 | 50 | 40 | reduced cardiovascular side effects | 86 | 51 | 27 | 0.8 | 1.5 | 3.0 |
| C[C@@H]1C[C@@H]2C[C@H](C1)C[C@@H](N1[C@@H]3CCC[C@H]1C[C@@H](n1c(=O)c(C(=O)O)nc4ccccc41)C3)C2 [Compound 405, (exo, endo, endo)-4-(9-(7-methylbicyclo[3.3.1]nonan-3-yl)-9-azabicyclo[3.3.1]nonan-3-yl)-3-oxo-3,4-dihydroquinoxaline-2-carboxylic acid potassium salt] |  |  |  |  | 70 | 70 | 70 |  |  |  |  |  |  |  |  |
